In PubChem BioAssay (NCI):
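Exposure lasted 48 hours, with cells grown in 96-well plates and compounds tested at five concentrations. Here, GI50 denotes the concentration required for 50% inhibition of growth. The concentration for full growth arrest is given as TGI.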

Legend:
Assay in all cases: DTP human tumour cell line panel, 48 h
[1] = tested on: SF-539 CNS
[2] = tested on: RXF 393 renal
[3] = tested on: T-47D breast
[4] = tested on: A498 renal
[5] = tested on: COLO 205 colon
[6] = tested on: UACC-62 melanoma
[7] = tested on: MOLT-4 leukemia
[8] = tested on: OVCAR-4 ovarian
[9] = tested on: MCF7 breast
[10] = tested on: SK-OV-3 ovarian

COC(=O)[C@H](Cc1cn(C)cn1)NC(=O)[C@@H](NC(=O)Nc1cc(C(F)(F)F)cc(C(F)(F)F)c1)C(C)C
GI50 [1]: > 10 µM
TGI [1]: > 10 µM
GI50 [2]: 1.96 µM
TGI [2]: 4.08 µM
GI50 [3]: 3.14 µM
TGI [3]: > 10 µM
GI50 [4]: > 10 µM
TGI [4]: > 10 µM
GI50 [5]: 4.94 µM
TGI [5]: > 10 µM
GI50 [6]: 8.58 µM
TGI [6]: > 10 µM
GI50 [7]: 3.16 µM
TGI [7]: > 10 µM
GI50 [8]: 4.58 µM
TGI [8]: > 10 µM
GI50 [9]: 1.98 µM
TGI [9]: 4.67 µM
GI50 [10]: > 10 µM
TGI [10]: > 10 µM

CCCCCCCCCCCCOC1C(C(CC(=O)N2CCN(Cc3ccc4c(c3)OCO4)CC2)NS(=O)(=O)c2cc(Cl)cc(Cl)c2)OC2OC(C)(C)OC21 (stereo not given)
GI50 [1]: 43 µM
TGI [1]: > 100 µM
GI50 [2]: 6.43 µM
TGI [2]: 28.1 µM
GI50 [3]: 28.9 µM
TGI [3]: > 100 µM
GI50 [4]: 43.4 µM
TGI [4]: > 100 µM
GI50 [5]: 11.7 µM
TGI [5]: > 78.3 µM
GI50 [6]: > 63.3 µM
TGI [6]: > 100 µM
GI50 [7]: 5.03 µM
TGI [7]: > 100 µM
GI50 [8]: 18.1 µM
TGI [8]: > 100 µM
GI50 [9]: 4.45 µM
TGI [9]: 36.6 µM
GI50 [10]: > 100 µM
TGI [10]: > 100 µM

O=C(Oc1ccc2c(c1)CN(Cc1ccccc1)CO2)c1ccccc1
TGI [1]: 32.3 µM
TGI [2]: 30.4 µM
TGI [3]: 70 µM
TGI [4]: 31.7 µM
TGI [5]: 31 µM
TGI [6]: 30.5 µM
TGI [7]: 54.1 µM
TGI [8]: 32.8 µM
TGI [9]: 32.7 µM
TGI [10]: 34 µM

CC1=C(CNO)C2=C(C)C3(CC3)[C@@](C)(O)C(=O)C2=C1
GI50 [1]: 1.64 µM
TGI [1]: 5.03 µM
GI50 [2]: 0.726 µM
TGI [2]: 2.41 µM
GI50 [3]: 1.21 µM
TGI [3]: 8.47 µM
GI50 [4]: 1.6 µM
TGI [4]: 3.28 µM
GI50 [5]: 1.09 µM
TGI [5]: 3.83 µM
GI50 [6]: 1.8 µM
TGI [6]: 3.73 µM
GI50 [7]: 3.72 µM
TGI [7]: > 100 µM
GI50 [8]: 2.1 µM
TGI [8]: 7.06 µM
GI50 [9]: 0.763 µM
TGI [9]: 6.73 µM
GI50 [10]: 1.13 µM
TGI [10]: 5.22 µM

COc1ccc(/C=C\c2cc(OC)c(OC)c(OC)c2)c(NS(=O)(=O)c2ccc(C(C)(C)C)cc2)c1O
GI50 [1]: 0.159 µM
TGI [1]: 0.509 µM
GI50 [2]: 0.0379 µM
TGI [2]: 16 µM
GI50 [3]: 16.8 µM
TGI [3]: 52.3 µM
GI50 [4]: 0.0241 µM
TGI [4]: 0.169 µM
GI50 [5]: 3.32 µM
TGI [5]: 12.5 µM
GI50 [6]: 0.113 µM
TGI [6]: 17.5 µM
GI50 [7]: 0.202 µM
TGI [7]: 3.94 µM
GI50 [8]: 0.188 µM
TGI [8]: 32 µM
GI50 [9]: 0.133 µM
TGI [9]: 15.7 µM
GI50 [10]: 1.42 µM
TGI [10]: 45.9 µM

Oc1ccccc1C=Nc1nc(OCc2ccccc2)nc2[nH]ncc12
GI50 [1]: 22.1 µM
TGI [1]: 43 µM
GI50 [2]: 4.56 µM
TGI [2]: 33.4 µM
GI50 [3]: 14 µM
TGI [3]: 46.3 µM
GI50 [4]: 20.8 µM
TGI [4]: 56.9 µM
GI50 [5]: 22.2 µM
TGI [5]: 49.6 µM
GI50 [6]: 13.6 µM
TGI [6]: 28.9 µM
GI50 [7]: 21.5 µM
TGI [7]: > 100 µM
GI50 [8]: 23.5 µM
TGI [8]: 69.6 µM
GI50 [9]: 15.5 µM
TGI [9]: 35.2 µM
GI50 [10]: 25.9 µM
TGI [10]: 55.4 µM
